pIC50, pKi: −log10 of the molar value.

We go through two molecules from BindingDB's records for doi:10.1002/cbic.200800538 (University of Toronto, 2009).

This test deals with T1, Alpha-mannosidase 2 (Drosophila melanogaster, UniProt Q24451).
T1 sequence (Q24451 whole entry): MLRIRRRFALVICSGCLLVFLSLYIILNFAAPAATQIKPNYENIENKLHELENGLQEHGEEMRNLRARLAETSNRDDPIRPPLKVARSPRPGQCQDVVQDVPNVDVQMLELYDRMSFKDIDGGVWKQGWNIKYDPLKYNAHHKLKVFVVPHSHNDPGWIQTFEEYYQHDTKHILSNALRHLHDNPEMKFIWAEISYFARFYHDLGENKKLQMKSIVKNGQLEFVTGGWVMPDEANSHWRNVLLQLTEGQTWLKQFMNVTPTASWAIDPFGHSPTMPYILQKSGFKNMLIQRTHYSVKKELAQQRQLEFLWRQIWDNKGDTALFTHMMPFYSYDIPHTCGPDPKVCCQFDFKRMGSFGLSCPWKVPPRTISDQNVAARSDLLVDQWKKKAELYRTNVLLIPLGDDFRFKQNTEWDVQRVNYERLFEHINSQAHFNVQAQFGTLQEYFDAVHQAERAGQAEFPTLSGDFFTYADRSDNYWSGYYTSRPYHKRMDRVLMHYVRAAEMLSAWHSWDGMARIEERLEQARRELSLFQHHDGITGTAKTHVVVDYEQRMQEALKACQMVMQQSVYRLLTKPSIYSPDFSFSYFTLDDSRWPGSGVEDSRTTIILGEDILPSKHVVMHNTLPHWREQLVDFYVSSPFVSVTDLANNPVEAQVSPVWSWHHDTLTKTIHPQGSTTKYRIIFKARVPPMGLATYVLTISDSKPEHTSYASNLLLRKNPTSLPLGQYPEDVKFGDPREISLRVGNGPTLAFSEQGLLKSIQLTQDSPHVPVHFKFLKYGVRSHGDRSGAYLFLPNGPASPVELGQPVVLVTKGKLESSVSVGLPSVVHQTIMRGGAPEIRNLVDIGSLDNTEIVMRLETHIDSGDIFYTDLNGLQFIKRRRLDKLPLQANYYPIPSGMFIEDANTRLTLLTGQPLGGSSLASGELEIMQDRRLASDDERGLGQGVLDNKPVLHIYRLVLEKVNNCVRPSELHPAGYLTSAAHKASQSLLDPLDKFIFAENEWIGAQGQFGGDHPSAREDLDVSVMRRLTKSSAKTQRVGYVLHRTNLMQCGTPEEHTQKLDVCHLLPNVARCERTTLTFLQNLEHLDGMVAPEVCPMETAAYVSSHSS
Put plainly: Inhibition Assay. The method, then:
The rate of hydrolysis catalyzed by drosophila golgi alpha-mannosidase II (dGMII)and in the presence of different concentration of inhibitor was measured fluorometrically and Ki values were determined from Dixon plots.

As to `C[S+]([O-])[C@@H]1[C@@H](N)[C@@H](O)[C@@H](O)[C@H]1O` (some centres not stated) [Mannostatin B, 2], the pKi is 6.82. `N[C@H]1[C@@H](O)[C@@H](O)[C@@H](O)[C@H]1O` [Mannostatin analogue, 4b] showed a pIC50 of 4.00.
